For one assay, the target named is JAK3 (Homo sapiens (Human), UniProt P52333). Put plainly: Jak Biochemical HTRF Assay (JAK3). As to conditions: recombinant GST-tagged catalytic domain, [ATP] 2.9 μM.
For another assay, the target named is JAK2 (Homo sapiens (Human), UniProt O60674). Kind of assay: Jak Biochemical HTRF Assay (JAK2). As to conditions: recombinant GST-tagged catalytic domain, [ATP] 8.5 μM. For orientation: TR-FRET usually uses a lanthanide donor and a delayed reading to cut background.
Chain of JAK2 (O60674 849-1124): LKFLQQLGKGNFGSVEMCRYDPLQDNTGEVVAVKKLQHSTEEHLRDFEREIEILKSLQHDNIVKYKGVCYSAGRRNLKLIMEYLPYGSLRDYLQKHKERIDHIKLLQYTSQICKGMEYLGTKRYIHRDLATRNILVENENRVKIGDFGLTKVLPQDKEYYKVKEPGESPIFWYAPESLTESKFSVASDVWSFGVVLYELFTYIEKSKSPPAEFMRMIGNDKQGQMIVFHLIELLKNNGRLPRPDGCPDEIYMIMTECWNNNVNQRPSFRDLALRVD

pIC50: −log10 of the molar value.

Chain of JAK3 (P52333 822-1111): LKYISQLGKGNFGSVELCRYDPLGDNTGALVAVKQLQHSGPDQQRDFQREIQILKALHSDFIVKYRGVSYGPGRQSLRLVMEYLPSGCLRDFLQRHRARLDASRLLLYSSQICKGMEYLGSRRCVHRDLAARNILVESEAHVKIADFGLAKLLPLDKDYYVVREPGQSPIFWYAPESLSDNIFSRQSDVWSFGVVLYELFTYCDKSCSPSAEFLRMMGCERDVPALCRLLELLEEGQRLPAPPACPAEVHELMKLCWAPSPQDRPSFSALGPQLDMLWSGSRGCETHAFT

As usually defined, the pIC50 is the IC50 on a negative log10 scale, so that one unit is a factor of ten. Consider `COc1ncccc1-c1c[nH]c2ncnc(-c3ccccc3)c12` [Example 32-1, 5-(2-Methoxypyridin-3-yl)-4-phenyl-7H-pyrrolo[2,3-d]pyrimidine], for which the pIC50 on JAK3 (given as range class) and on JAK2 (given as range class) was 6.30 to 8.00 throughout.

Take `COc1cccc(-c2c[nH]c3ncnc(-c4ccccc4)c23)c1` [Example 32-3, 5-(3-methoxyphenyl)-4-phenyl-7H-pyrrolo[2,3-d]pyrimidine]: the results for the negative-log IC50 (pIC50) at JAK3 and at JAK2 were 8.51 and 7.03, respectively.

Regarding `c1ccc(Oc2cccc(-c3c[nH]c4ncnc(-c5ccccc5)c34)c2)cc1` [Example 32-4, 5-(3-phenoxyphenyl)-4-phenyl-7H-pyrrolo[2,3-d]pyrimidine], the pIC50 was 6.30 to 8.00 on JAK3 (given as range class) and below 6.30 at JAK2 (given as range class).

Consider `c1ccc(COc2cccc(-c3c[nH]c4ncnc(-c5ccccc5)c34)c2)cc1` [Example 32-5, 5-[3-(benzyloxy)phenyl]-4-phenyl-7H-pyrrolo[2,3-d]pyrimidine], for which the pIC50 at JAK3 (given as range class) is 6.30 to 8.00; at JAK2 (given as range class), below 6.30.

Take `c1ccc(Oc2ccccc2-c2c[nH]c3ncnc(-c4ccccc4)c23)cc1` [Example 32-6, 5-(2-phenoxyphenyl)-4-phenyl-7H-pyrrolo[2,3-d]pyrimidine]: the pIC50 on JAK3 (given as range class) was 6.30 to 8.00; at JAK2 (given as range class) it was below 6.30.

Consider `COc1ccccc1-c1c[nH]c2ncnc(-c3ccccc3)c12` [Example 33-1, 5-(2-Methoxyphenyl)-4-phenyl-7H-pyrrolo[2,3-d]pyrimidine], for which the pIC50 on JAK3 was 8.47; on JAK2 it was 6.74.

As to `COc1ccccc1-c1c[nH]c2ncnc(-c3ccc4cn(C)nc4c3)c12` [Example 33-2, 5-(2-methoxyphenyl)-4-(2-methyl-2H-indazol-6-yl)-7H-pyrrolo[2,3-d]pyrimidine], the pIC50 on JAK3 is 8.16; at JAK2, below 5.83.

As for `COc1ccc(F)cc1-c1c[nH]c2ncnc(-c3ccccc3)c12` [Example 33-3, 5-(5-fluoro-2-methoxyphenyl)-4-phenyl-7H-pyrrolo[2,3-d]pyrimidine], the negative logarithm of the IC50 (pIC50) is 8.85 at JAK3 and 7.15 on JAK2.

`COc1cccc(-c2ncnc3[nH]cc(-c4ccccc4OC)c23)c1` [Example 33-4, 5-(2-methoxphenyl)-4-(3-methoxyphenyl)-7H-pyrrolo[2,3-d]pyrimidine]: the pIC50 at JAK3 (given as range class) and on JAK2 (given as range class) was 6.30 to 8.00 in each case.

For `COc1ccccc1-c1c[nH]c2ncnc(-c3cccc(C(=O)N(C)C)c3)c12` [Example 33-5, 3-[5-(2-methoxyphenyl)-7H-pyrrolo[2,3-d]pyrimidin-4-yl]-N,N-dimethylbenzamide], the pIC50 is 6.30 to 8.00 on JAK3 (given as range class) and below 6.30 on JAK2 (given as range class).

With `COc1ccccc1-c1c[nH]c2ncnc(-c3cn[nH]c3)c12` [Example 33-6, 5-(2-methoxyphenyl)-4-(1H-pyrazol-4-yl)-7H-pyrrolo[2,3-d]pyrimidine], the negative-log IC50 (pIC50) at JAK3 (given as range class) and at JAK2 (given as range class) was 6.30 to 8.00 throughout.

These data come from patent publication US8993756B2 (Merck Sharp & Dohme Corp., priority 2011, dated 2015).
